US6995153B2, “Fused bicyclic pyrimidine derivatives” (Kyorin Pharmaceutical. Co., Ltd., priority 2002, dated 2006)

What was measured:
NK1 receptor = biological target: T1, NK1 receptor (Cavia porcellus, UniProt P30547); experiment: Test for NK1 receptor antagonist: substance P concentration-response in isolated guinea pig ileum, Schild analysis; details: against substance P, 10 min pretreatment, method of Schild
T1 construct: from tissue; host or cells: isolated guinea pig ileum
Procedure: (1) Test for NK1 Receptor Antagonist
The method used was according to the method proposed by S. Dion et al.(Dion et al., Life Sciences 41(1987): 2269), to which minor modifications were made.
Guinea pigs were stunned by a blow on the head and were exsanguinated from the carotid artery and ilea were isolated. The ileum was mounted in an organ bath containing Tyrode's solution which was maintained at 32° C., and gased with 95% O2 and 5% CO2. The ileum was subjected to a resting tension of 1-gram and allowed to equilibrate for 20 minutes before the experiment was started. As a control, a concentration-response curve for substance P in the absence of any of test compounds was used. The NK1 receptor antagonist activity of each test compound was determined by a concentration-response curve obtained by pretreating at least three concentrations of the test compound for 10 minutes and subsequently applying substance P in a cumulative manner. The Kb values were determined according to the method of Schild and the results are shown in Table 1 (Schild Brit. J. Pharmacol. 14(1959): 49).
The composition of the Tyrode's solution was as follows: NaCl=136.9, KCl=2.7, CaCl2.2H2O=2.5, MgCl2.6H2O=1.0, NaH2PO4.2H2O=0.4, NaHCO3=11.9, glucose=11.1(mmol/L)

Guinea pigs = experiment: Cystometry test on guinea pigs with cut spinal cord (effective bladder capacity); type: in vivo; details: guinea pig
Excerpt: (2) Cystometry Test on Guinea Pigs
The method used was according to the method proposed by J S. Peterson et al. (Peterson J S. et al., J. Pharmacol. Methods 21(1989): 231), to which minor modifications were made.
Guinea pigs were anesthetized with halothane and the tenth thoracic spinal cord was cut in each animal. Subsequently, both ureters were ligated and were cut on the kidney-side. Polyethylene catheters were inserted into the bladder to provide an injection pathway for physiological saline and a pathway for the measurement of intravesical pressure. Each animal was restricted in a Ballman cage and was left for more than 2 hours. Subsequently, room-temperature saline was injected through the bladder catheter into the bladder at a rate of 6 mL/hr to conduct a cystometry test. Once the effective bladder capacity was stabilized, a test compound was intravenously administered into the jugular vein. The effective bladder capacity is defined as the volume of saline injected from one urination to the next. The effect of each test compound was determined as the increase in the average bladder volume, which was determined based on the average bladder volume measured 30 minutes prior to the administration of the test compound and the average bladder volume measured every 30 minutes after the administration of the test compound.

T1 sequence (P30547 whole entry): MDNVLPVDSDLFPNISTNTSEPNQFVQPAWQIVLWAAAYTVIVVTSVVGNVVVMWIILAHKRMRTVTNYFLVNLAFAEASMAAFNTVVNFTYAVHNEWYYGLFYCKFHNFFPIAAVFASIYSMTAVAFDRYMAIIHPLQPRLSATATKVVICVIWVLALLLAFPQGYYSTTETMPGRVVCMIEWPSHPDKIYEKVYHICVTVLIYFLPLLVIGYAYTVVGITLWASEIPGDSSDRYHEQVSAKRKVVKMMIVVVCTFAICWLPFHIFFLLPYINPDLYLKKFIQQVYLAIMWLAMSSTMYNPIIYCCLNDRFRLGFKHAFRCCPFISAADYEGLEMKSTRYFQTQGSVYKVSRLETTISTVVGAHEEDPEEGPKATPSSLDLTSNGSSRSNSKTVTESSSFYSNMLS

Row | SMILES | Kb (NK1 receptor) | also measured
1 | Cc1ccccc1-c1nc(N2CCC(N(C)C)C2)nc2c1C(=O)N(Cc1cc(C(F)(F)F)cc(C(F)(F)F)c1)CCCO2 (centres unmarked) [Example 25, 5-[3,5-bis(trifluoromethyl)benzyl]-9-[3-(dimethylamino)pyrrolidine-1-yl]-7-(2-methylphenyl)-6-oxo-2,3,4,5-tetrahydro-6H-pyrimido[4,5-b][1,5]oxazocine] | 0.427 nM | 
2 | Cc1ccccc1-c1nc(-n2ccnc2)nc2c1C(=O)N(Cc1cc(C(F)(F)F)cc(C(F)(F)F)c1)CCCO2 [Example 18, 5-[3,5-bis(trifluoromethyl)benzyl]-9-(imidazole-1-yl)-7-(2-methylphenyl)-6-oxo-2,3,4,5-tetrahydro-6H-pyrimido[4,5-b][1,5]oxazocine] | 0.459 nM | 
3 | Cc1ccccc1-c1nc(N2CCN(c3ncccn3)CC2)nc2c1C(=O)N(Cc1cc(C(F)(F)F)cc(C(F)(F)F)c1)CCCO2 [Example 14, 5-[3,5-bis(trifluoromethyl)benzyl]-7-(2-methylphenyl)-6-oxo-9-[4-(pyrimidine-2-yl)piperazine-1-yl]-2,3,4,5-tetrahydro-6H-pyrimido[4,5-b][1,5]oxazocine] | 0.798 nM | 
4 | CC(=O)NC1CCN(c2nc3c(c(-c4ccccc4C)n2)C(=O)N(Cc2cc(C(F)(F)F)cc(C(F)(F)F)c2)CCCO3)CC1 [Example 37, 9-[4-(acetylamino)piperidine-1-yl]-5-[3,5-bis(trifluoromethyl)benzyl]-7-(2-methylphenyl)-6-oxo-2,3,4,5-tetrahydro-6H-pyrimido[4,5-b][1,5]oxazocine] | 0.151 nM | 
5 | O=C1c2c(nc(N3CCC(N4CCCC4)CC3)nc2-c2ccc(F)cc2)OCCCN1Cc1cc(C(F)(F)F)cc(C(F)(F)F)c1 [Example 13, 5-[3,5-bis(trifluoromethyl)benzyl]-7-(4-fluorophenyl)-6-oxo-9-[4-(pyrrolidine-1-yl)piperidine-1-yl]-2,3,4,5-tetrahydro-6H-pyrimido[4,5-b][1,5]oxazocine] | 0.217 nM | 
6 | CC(=O)NC1CCN(c2nc3c(c(-c4ccccc4C)n2)C(=O)N(Cc2cc(C(F)(F)F)cc(C(F)(F)F)c2)CCCO3)C1 (centres unmarked) [Example 27, 5-[3,5-bis(trifluoromethyl)benzyl]-9-[3-(acetylamino)pyrrolidine-1-yl]-7-(2-methylphenyl)-6-oxo-2,3,4,5-tetrahydro-6H-pyrimido[4,5-b][1,5]oxazocine] | 0.44 nM | 
7 | Cc1ccccc1-c1nc(N2CCC(NS(C)(=O)=O)CC2)nc2c1C(=O)N(Cc1cc(C(F)(F)F)cc(C(F)(F)F)c1)CCCO2 [Example 38, 5-[3,5-bis(trifluoromethyl)benzyl]-9-[4-(methylsulfonylamino)piperidine-1-yl]-7-(2-methylphenyl)-6-oxo-2,3,4,5-tetrahydro-6H-pyrimido[4,5-b][1,5]oxazocine] | 0.214 nM | 
8 | Cc1ccccc1-c1nc(N2CCN(C)CC2)nc2c1C(=O)N(Cc1cc(C(F)(F)F)cc(C(F)(F)F)c1)CCCO2 [Example 44, 5-[3,5-bis(trifluoromethyl)benzyl]-7-(2-methylphenyl)-9-(4-methylpiperazine-1-yl)-6-oxo-2,3,4,5-tetrahydro-6H-pyrimido[4,5-b][1,5]oxazocine] | 0.00631 nM | 
9 | COc1ccccc1-c1nc(N2CCN(C(C)=O)CC2)nc2c1C(=O)N(Cc1cc(C(F)(F)F)cc(C(F)(F)F)c1)CCCO2 [Example 29, 9-(4-acetylpiperazine-1-yl)-5-[3,5-bis(trifluoromethyl)benzyl]-7-(2-methoxyphenyl)-6-oxo-2,3,4,5-tetrahydro-6H-pyrimido[4,5-b][1,5]oxazocine] | 0.1 nM | 
10 | O=C1c2c(nc(N3CCOCC3)nc2-c2ccccc2F)OCCCN1Cc1cc(C(F)(F)F)cc(C(F)(F)F)c1 [Example 2, 5-[3,5-bis(trifluoromethyl)benzyl]-7-(2-fluorophenyl)-9-(morpholine-4-yl)-6-oxo-2,3,4,5-tetrahydro-6H-pyrimido[4,5-b][1,5]oxazocine] | 0.294 nM | 
11 | Cc1ccc(-c2c3n(c(=O)c4ncccc24)CC[C@@H](C)CN(Cc2cc(C(F)(F)F)cc(C(F)(F)F)c2)C3=O)cc1 [TAK-637, reference compound] | 0.269 nM | Increase in bladder capacity (%) (Guinea pigs; 0.3 mg/kg i.v.): 12.0%; Increase in bladder capacity (%) (Guinea pigs; 1 mg/kg i.v.): 23.8%; Increase in bladder capacity (%) (Guinea pigs; 3 mg/kg i.v.): 20.5%
12 | COc1ccccc1-c1nc(N2CCS(=O)(=O)CC2)nc2c1C(=O)N(Cc1cc(C(F)(F)F)cc(C(F)(F)F)c1)CCCO2 [Example 43, 5-[3,5-bis(trifluoromethyl)benzyl]-9-(1,1-dioxothiomorpholine-4-yl)-7-(2-methoxyphenyl)-6-oxo-2,3,4,5-tetrahydro-6H-pyrimido[4,5-b][1,5]oxazocine] | 0.123 nM | 
13 | CC(=O)N1CCCN(c2nc3c(c(-c4ccccc4C)n2)C(=O)N(Cc2cc(C(F)(F)F)cc(C(F)(F)F)c2)CCCO3)CC1 [Example 41, 9-(4-acetylhomopiperazine-1-yl)-5-[3,5-bis(trifluoromethyl)benzyl]-7-(2-methylphenyl)-6-oxo-2,3,4,5-tetrahydro-6H-pyrimido[4,5-b][1,5]oxazocine] | 0.308 nM | Increase in bladder capacity (%) (Guinea pigs; 0.3 mg/kg i.v.): 36.8%
14 | Cc1ccccc1-c1nc(N2CCCN(C)CC2)nc2c1C(=O)N(Cc1cc(C(F)(F)F)cc(C(F)(F)F)c1)CCCO2 [Example 26, 5-[3,5-bis(trifluoromethyl)benzyl]-9-(4-methylhomopiperazine-1-yl)-7-(2-methylphenyl)-6-oxo-2,3,4,5-tetrahydro-6H-pyrimido[4,5-b][1,5]oxazocine] | 0.398 nM | 
15 | CC(=O)N1CCN(c2nc3c(c(-c4ccccc4C)n2)C(=O)N(Cc2cc(C(F)(F)F)cc(C(F)(F)F)c2)CCCO3)CC1 [Example 16, 9-(4-acetylpiperazine-1-yl)-5-[3,5-bis(trifluoromethyl)benzyl]-7-(2-methylphenyl)-6-oxo-2,3,4,5-tetrahydro-6H-pyrimido[4,5-b][1,5]oxazocine] | 0.105 nM | Increase in bladder capacity (%) (Guinea pigs; 0.3 mg/kg i.v.): 59.4%; melting point: 160.5 to 163.5 °C
16 | Cc1ccccc1-c1nc(N2CCS(=O)(=O)CC2)nc2c1C(=O)N(Cc1cc(C(F)(F)F)cc(C(F)(F)F)c1)CCCO2 [Example 20, 5-[3,5-bis(trifluoromethyl)benzyl]-9-(1,1-dioxothiomorpholine-4-yl)-7-(2-methylphenyl)-6-oxo-2,3,4,5-tetrahydro-6H-pyrimido[4,5-b][1,5]oxazocine] | 0.0794 nM | Increase in bladder capacity (%) (Guinea pigs; 0.3 mg/kg i.v.): 40.4%
